In US20070082877A1, “Difluoromethylbenzanilides and use thereof for combating micro-organisms, intermediate products and use thereof” (BAYER CORPSCIENCE AKTIENGESELLSCHAFT, priority 2003, published 2007):

Assay: log P determination by HPLC on reversed-phase column (C 18), EEC directive 79/831 Annex V.A8
Type: physicochemical
Conditions: reversed-phase HPLC column (C 18), acidic range pH 2.3, 43° C.
Description: The given log P values were determined in accordance with EEC directive 79/831 Annex V.A8 by HPLC (High Performance Liquid Chromatography) on a reversed-phase column (C 18). Temperature: 43° C. Mobile phases for the determination in the acidic range (pH 2.3): 0.1% aqueous phosphoric acid, acetonitrile; linear gradient from 10% acetonitrile to 90% acetonitrile. Calibration was carried out using unbranched alkan-2-ones (having 3 to 6 carbon atoms) with known log P values (determination of the log P values by the retention times using linear interpolation between two successive alkanones).

chromatographic logP: 4.38
SMILES: CC(CC(C)(C)C)c1ccccc1NC(=O)c1ccccc1C(F)F (stereo not shown) [No. 1, 2-difluoromethyl-N-[2-(1,3,3-trimethylbutyl)phenyl]benzamide]
